This is an account of results in ChEMBL document CHEMBL1157548, “Mitochondrial biotransformation of omega-(phenoxy)alkanoic acids, 3-(phenoxy)acrylic acids, and omega-(1-methyl-1H-imidazol-2-ylthio)alkanoic acids: a prodrug strategy for targeting cytoprotective antioxidants to mitochondria” (Bioorg Med Chem, 2010).

Calls of active or inactive are those of the source. The rule behind the calls is not given here.

The test system of experiment [1] is Cardiac muscle cell. The experiment is described as follows: Cytoprotective effect in rat cardiomyocytes under hypoxia-reoxygenation condition assessed as cell viability at 1 uM by trypan blue exclusion test. In kind it is functional, cell-based.
Experiment [2] has as its system Cardiac muscle cell. Briefly: Cytoprotective effect in rat cardiomyocytes under hypoxia-reoxygenation condition assessed as cell viability at 1 uM by trypan blue exclusion test in presence of etomoxir. In kind it is functional, cell-based.

With `Cc1cccc(C)c1OCCC(=O)O`, the result in the experiment with Cardiac muscle cell [1] was Active. Further, the result in the experiment on Cardiac muscle cell [2] was inactive.

Take `Cn1ccnc1SCCC(=O)O`: the result in the experiment on Cardiac muscle cell [1] was Active. Further, in the experiment on Cardiac muscle cell [2], the result was inactive.

With `Cn1ccnc1SCCCCC(=O)O`, in the experiment on Cardiac muscle cell [1], the result was Active. Moreover, in the experiment on Cardiac muscle cell [2], the result was inactive.

On to `Cn1ccnc1S`, for which, in the experiment with Cardiac muscle cell [1], the outcome was inactive.

In the case of `Cc1cccc(C)c1O/C=C/C(=O)O`, the result in the experiment on Cardiac muscle cell [1] was Active. Also, the outcome in the experiment with Cardiac muscle cell [2] was inactive.
